Source: PMC8371902, “Phase 1 study of M2698, a p70S6K/AKT dual inhibitor, in patients with advanced cancer” (Journal of Hematology & Oncology, 2021)
Where two headings read alike, the source gives them in different places.

Tested on: patients with advanced metastatic cancer
Description: In this phase 1 study, dose escalation was followed by expansion cohorts of once-daily, oral M2698 in continuous 21-day cycles. Primary objectives were to determine the maximum tolerated dose (MTD), dose-limiting toxicities (DLTs), and recommended phase 2 dose (RP2D). Secondary objectives were to assess safety and tolerability, pharmacokinetics (PK, including food effect) and antitumor activity. Pharmacodynamic biomarker assessments were exploratory. Treatment was discontinued if there was disease progression, toxicity or consent withdrawal.
In Part 1, M2698 monotherapy was investigated in a dose escalation with a food effect cohort. In Part 2, M2698 was investigated as monotherapy (expansion cohort) to further characterize safety, tolerability and pharmacokinetics, and assess antitumor activity in PAM + patients without confounding markers (exploratory).
Dose escalation analysis included all patients who experienced a DLT and those who received ≥ 80% of planned M2698 doses in cycle 1 without experiencing a DLT. Safety analysis included all patients who received ≥ 1 dose of M2698. PK analysis included all patients who received ≥ 1 dose of M2698 and had measurable plasma concentrations. Dose proportionality was tested using the power model (linear regression approach on the log -transformed scale).

For `NC(=O)c1cccc2c(N[C@H](CN3CCC3)c3ccc(Cl)c(C(F)(F)F)c3)ncnc12` [M2698], the “M2698-related TEAE: Dysphagia” value (380 mg n=4) was 0, the “M2698-related TEAE: Energy increased” value (380 mg n=4) was 0 and the “M2698-related TEAE: Erythema” value (380 mg n=4) was 0. For the same molecule, the “M2698-related TEAE: Euphoric mood” value (380 mg n=4) was 0, the “M2698-related TEAE: Eye disorders” value (380 mg n=4) was 0 and the “M2698-related TEAE: Fatigue” value (380 mg n=4) was 0. The “M2698-related TEAE: Gamma-glutamyltransferase increased” value (380 mg n=4) was 0, the “M2698-related TEAE: Gastrointestinal disorders” value (380 mg n=4) was 2 and the “M2698-related TEAE: Gastrooesophageal reflux disease” value (380 mg n=4) was 0. For the same molecule, the “M2698-related TEAE: General disorders and administration site conditions” value (380 mg n=4) was 0, the “M2698-related TEAE: Headache” value (380 mg n=4) was 0 and the “M2698-related TEAE: Hyperhidrosis” value (380 mg n=4) was 0. The “M2698-related TEAE: Hypokalaemia” value (380 mg n=4) was 0, the “M2698-related TEAE: Hypomagnesaemia” value (380 mg n=4) was 0 and the “M2698-related TEAE: Insomnia” value (380 mg n=4) was 0. For the same molecule, the “M2698-related TEAE: Investigations” value (380 mg n=4) was 1, the “M2698-related TEAE: Lipase increased” value (380 mg n=4) was 0 and the “M2698-related TEAE: Lymphopenia” value (380 mg n=4) was 0. The “M2698-related TEAE: Metabolism and nutrition disorders” value (380 mg n=4) was 0, the “M2698-related TEAE: Mucosal inflammation” value (380 mg n=4) was 0 and the “M2698-related TEAE: Nausea” value (380 mg n=4) was 1. For the same molecule, the “M2698-related TEAE: Nervous system disorders” value (380 mg n=4) was 1, the “M2698-related TEAE: Nightmare” value (380 mg n=4) was 0 and the “M2698-related TEAE: Onychomadesis” value (380 mg n=4) was 0. For the same molecule, the “M2698-related TEAE: Paranoia” value (380 mg n=4) was 0, the “M2698-related TEAE: Photosensitivity reaction” value (380 mg n=4) was 0 and the “M2698-related TEAE: Posterior reversible encephalopathy syndrome” value (380 mg n=4) was 1. For the same molecule, the “M2698-related TEAE: Pruritus generalised” value (380 mg n=4) was 0, the “M2698-related TEAE: Psychiatric disorders” value (380 mg n=4) was 0 and the “M2698-related TEAE: Rash” value (380 mg n=4) was 0. For the same molecule, the “M2698-related TEAE: Rash maculo-papular” value (380 mg n=4) was 0, the “M2698-related TEAE: Skin and subcutaneous tissue disorders” value (380 mg n=4) was 0 and the “M2698-related TEAE: Subjects with at least one event” value (380 mg n=4) was 3. For the same molecule, the “M2698-related TEAE: Transaminases increased” value (380 mg n=4) was 0, the “M2698-related TEAE: Tremor” value (380 mg n=4) was 0 and the “M2698-related TEAE: Vision blurred” value (380 mg n=4) was 0. The “M2698-related TEAE: Vomiting” value (380 mg n=4) was 1, the “M2698-related TEAE: White blood cell count decreased” value (380 mg n=4) was 0 and the “M2698-related TEAE: Abnormal dreams” value (Overall N=62) was 6 (9.7) n (%). The “M2698-related TEAE: Affect lability” value (Overall N=62) was 1 (1.6) n (%), the “M2698-related TEAE: Alanine aminotransferase increased” value (Overall N=62) was 1 (1.6) n (%) and the “M2698-related TEAE: Amylase increased” value (Overall N=62) was 1 (1.6) n (%). The “M2698-related TEAE: Anaemia” value (Overall N=62) was 2 (3.2) n (%), the “M2698-related TEAE: Angina pectoris” value (Overall N=62) was 1 (1.6) n (%) and the “M2698-related TEAE: Anxiety” value (Overall N=62) was 1 (1.6) n (%). For the same molecule, the “M2698-related TEAE: Aphasia” value (Overall N=62) was 1 (1.6) n (%), the “M2698-related TEAE: Ataxia” value (Overall N=62) was 1 (1.6) n (%) and the “M2698-related TEAE: Blood and lymphatic system disorders” value (Overall N=62) was 3 (4.8) n (%). The “M2698-related TEAE: Blood creatine phosphokinase increased” value (Overall N=62) was 2 (3.2) n (%), the “M2698-related TEAE: Blood creatinine increased” value (Overall N=62) was 2 (3.2) n (%) and the “M2698-related TEAE: Cardiac disorders” value (Overall N=62) was 1 (1.6) n (%). The “M2698-related TEAE: Cognitive disorder” value (Overall N=62) was 1 (1.6) n (%), the “M2698-related TEAE: Constipation” value (Overall N=62) was 3 (4.8) n (%) and the “M2698-related TEAE: Decreased appetite” value (Overall N=62) was 2 (3.2) n (%). The “M2698-related TEAE: Delusion” value (Overall N=62) was 1 (1.6) n (%), the “M2698-related TEAE: Depression” value (Overall N=62) was 2 (3.2) n (%) and the “M2698-related TEAE: Diarrhoea” value (Overall N=62) was 7 (11.3) n (%). For the same molecule, the “M2698-related TEAE: Diarrhoea haemorrhagic” value (Overall N=62) was 1 (1.6) n (%), the “M2698-related TEAE: Dizziness” value (Overall N=62) was 1 (1.6) n (%) and the “M2698-related TEAE: Dry eye” value (Overall N=62) was 1 (1.6) n (%). The “M2698-related TEAE: Dry mouth” value (Overall N=62) was 1 (1.6) n (%), the “M2698-related TEAE: Dysgeusia” value (Overall N=62) was 2 (3.2) n (%) and the “M2698-related TEAE: Dyspepsia” value (Overall N=62) was 1 (1.6) n (%). The “M2698-related TEAE: Dysphagia” value (Overall N=62) was 1 (1.6) n (%), the “M2698-related TEAE: Energy increased” value (Overall N=62) was 1 (1.6) n (%) and the “M2698-related TEAE: Erythema” value (Overall N=62) was 1 (1.6) n (%). The “M2698-related TEAE: Euphoric mood” value (Overall N=62) was 1 (1.6) n (%), the “M2698-related TEAE: Eye disorders” value (Overall N=62) was 2 (3.2) n (%) and the “M2698-related TEAE: Fatigue” value (Overall N=62) was 4 (6.5) n (%). For the same molecule, the “M2698-related TEAE: Gamma-glutamyltransferase increased” value (Overall N=62) was 2 (3.2) n (%), the “M2698-related TEAE: Gastrointestinal disorders” value (Overall N=62) was 18 (29.0) n (%) and the “M2698-related TEAE: Gastrooesophageal reflux disease” value (Overall N=62) was 1 (1.6) n (%). The “M2698-related TEAE: General disorders and administration site conditions” value (Overall N=62) was 6 (9.7) n (%), the “M2698-related TEAE: Headache” value (Overall N=62) was 1 (1.6) n (%) and the “M2698-related TEAE: Hyperhidrosis” value (Overall N=62) was 1 (1.6) n (%). For the same molecule, the “M2698-related TEAE: Hypokalaemia” value (Overall N=62) was 2 (3.2) n (%), the “M2698-related TEAE: Hypomagnesaemia” value (Overall N=62) was 1 (1.6) n (%) and the “M2698-related TEAE: Insomnia” value (Overall N=62) was 2 (3.2) n (%). For the same molecule, the “M2698-related TEAE: Investigations” value (Overall N=62) was 9 (14.5) n (%), the “M2698-related TEAE: Lipase increased” value (Overall N=62) was 1 (1.6) n (%) and the “M2698-related TEAE: Lymphopenia” value (Overall N=62) was 1 (1.6) n (%). The “M2698-related TEAE: Metabolism and nutrition disorders” value (Overall N=62) was 4 (6.5) n (%), the “M2698-related TEAE: Mucosal inflammation” value (Overall N=62) was 1 (1.6) n (%) and the “M2698-related TEAE: Nausea” value (Overall N=62) was 12 (19.4) n (%). The “M2698-related TEAE: Nervous system disorders” value (Overall N=62) was 10 (16.1) n (%), the “M2698-related TEAE: Nightmare” value (Overall N=62) was 1 (1.6) n (%) and the “M2698-related TEAE: Onychomadesis” value (Overall N=62) was 1 (1.6) n (%). The “M2698-related TEAE: Paranoia” value (Overall N=62) was 1 (1.6) n (%), the “M2698-related TEAE: Photosensitivity reaction” value (Overall N=62) was 1 (1.6) n (%) and the “M2698-related TEAE: Posterior reversible encephalopathy syndrome” value (Overall N=62) was 1 (1.6) n (%). The “M2698-related TEAE: Pruritus generalised” value (Overall N=62) was 1 (1.6) n (%), the “M2698-related TEAE: Psychiatric disorders” value (Overall N=62) was 10 (16.1) n (%) and the “M2698-related TEAE: Rash” value (Overall N=62) was 1 (1.6) n (%). For the same molecule, the “M2698-related TEAE: Rash maculo-papular” value (Overall N=62) was 2 (3.2) n (%), the “M2698-related TEAE: Skin and subcutaneous tissue disorders” value (Overall N=62) was 8 (12.9) n (%) and the “M2698-related TEAE: Subjects with at least one event” value (Overall N=62) was 34 (54.8) n (%). For the same molecule, the “M2698-related TEAE: Transaminases increased” value (Overall N=62) was 1 (1.6) n (%), the “M2698-related TEAE: Tremor” value (Overall N=62) was 4 (6.5) n (%) and the “M2698-related TEAE: Vision blurred” value (Overall N=62) was 1 (1.6) n (%).
